According to patent publication US9926293B2, “Multivalent RAS binding compounds” (THE TRUSTEES OF COLUMBIA UNIVERSITY IN THE CITY OF NEW YORK, priority 2014, dated 2018):

Tests used:
[1] = test system: caspases 3 and 7 in HT-1080 (NRAS^Q61K) cells; assay: Caspase 3/7 activation assay; type: cell-based; settings: staurosporine 5 μM, 24 hours
Method: Caspase 3/7 Activation Assay
HT-1080 cells were seeded into 384-well plates at 1,000 cells/well. After 12-16 hours, compounds (as 50 mM stocks in DMSO) were arrayed in a dilution series in 384-well polypropylene plates. Compound solutions were transferred at a 1:5 dilution into the assay plates for a total volume of 40 μL. After 24 hours, 8 μL of a 1:100 solution of rhodamine 110 bis-(N-CBZ-1-aspartyl-1-glutamyl-1-valyl-aspartic acid amide) to lysis buffer (APO-1, Promega) was added and the plate was wrapped in aluminum foil and incubated at room temperature for 16 hours. Fluorescence intensity was then determined using a Victor3 plate reader (Perkin Elmer) with a 490 nm excitation filter and a 535 nm emission filter. A viability curve was performed in parallel with the same incubation time using the procedure described in the “cell viability assays” section.

[2] = test system: phosphorylated ERK in BJeLR (HRAS^G12V); assay: Western blot of phosphorylated ERK; type: cell-based; settings: 2 μM and 8 μM, 24 hours, serum free
Method: FIG. 19A-FIG. 19B show BJeLR cells were treated with DMSO, RAS inhibitor at 2 μM and 8 μM, U0126 at 8 μM, or BEZ-235 at 0.2 μM for 24 hours under serum free conditions. Cells were then lysed and the lysate was subjected to detection of phosphorylated Erk and total Erk by western blotting (FIG. 19A). Three independent experiments yielded essentially equivalent results.
(§1) BJeLR cells were seeded in 60 mm dishes at 1 million cells/dish in media containing DMEM and 10% FBS with 1% penicillin and streptomycin (PS), 12-16 hours prior to use. The medium was then aspirated and compounds added as solutions in serum free medium (DMEM with 1% PS) to the dishes and treated for 24 hours or at the indicated time points. Following treatment, the medium was aspirated from each dish and cells were washed twice with PBS. […] Antibodies for pERK1/2, ERK1/2, pAKT ser473, AKT, pan-RAS, RALA, PI3Kgamma (Cell signaling), and RAF-1 (Santa Cruz) were detected using a goat anti-rabbit or goat anti-mouse IgG antibody conjugated to an IRdye at 800CW and 680CW conjugated, respectively (Li-COR biosciences).

[3] = target: T1, KRAS^G12D with GDP (Homo sapiens, UniProt P01116, G12D); assay: Microscale thermophoresis, GDP-loaded KRAS^G12D; type: binding
T1 construct: made in house; host or cells: Escherichia coli BL21-Gold (DE3)
Method: […] After an additional 10 minutes incubation on ice, 200 uL of a 10 uM solution of KRAS^G12D was combined with 200 uL of a 20 uM solution of NT-647-NHS-ester dye (from a 652.4 μM stock). The protein/dye mixture was rotated at 4° C. for 30 minutes, before being separated from the excess dye and buffer exchanged into 25 mM Tris, 100 mM sodium chloride, 2 mM TCEP, and 5 mM MgCl2 via a nap-5 column. The test compounds were arrayed across a 16-point dilution series consisting of 1.5% DMSO with 25 mM Tris, 100 mM NaCl, 2 mM TCEP, 5 mM MgCl2 and 0.05% tween-20. Thermophoretic movement of the fluorescently labeled protein with the inhibitors was performed using a Monolith NT.115 (Nanotemper Technologies). RALA and RHOA were purchased commercially from Abcam (RALA CN:ab102555, RHOA CN:ab101594).

[4] = test system: RAS-RAF interaction in BJeLR cells; assay: Cell-based RAS pulldown with CRAF-RBD agarose beads; settings: 2 μM and 8 μM, 24 hours, serum free
Method: FIG. 20A-FIG. 20B show BJeLR cells were treated as described in FIG. 19A-FIG. 19B and the lysate was incubated with CRAF-RBD bound agarose beads. The beads were then washed three times with PBS to remove any unbound RAS and the bound fraction was then denatured and subjected to detection by western blotting using a pan-RAS antibody (FIG. 20A).
BJeLR cells were seeded at one million cells/10 cm dish in 10% FBS and incubated at 37° C. overnight. The medium was then aspirated and replaced with serum free media containing the inhibitors (from 10 mM DMSO stocks). The cells were then incubated for 24 hours at 37° C. The medium was removed, washed with cold PBS, lysed and spun down at 13,000 rpm at 4° C. to remove unlysed cells and debris. The lysate was incubated with Raf-1 RBD agarose beads (EMD millipore) for 2 hours with rotation at 4° C. The solution was then spun down at 1500×g and the supernatant removed. The beads were washed twice with PBS, resuspended in 2.5×SDS, and then analyzed by western blotting procedure.

[5] = test system: phosphorylated AKT in BJeLR cells; assay: Western blot of phosphorylated AKT; type: cell-based; settings: 2 μM and 8 μM, 24 hours, serum free
Method: FIG. 21A-FIG. 21B show BJeLR cells were treated as described in FIG. 19A-FIG. 19B and the lysate was subjected to detection of phosphorylated AKT ([…]) and total AKT by western blotting (FIG. 21A).
as §1

[6] = 31MEW44 5 μM, 34MEW43 10 μM, 34MEW95 5 μM

Row | Structure (SMILES) | fluorescence of caspase 3/7 substrate [1, 6] | fluorescence of caspase 3/7 substrate ([1]; 31MEW44 2.5 and 5 μM) | pERK abundance [2] | loss in affinity ([3]; GDP-loaded vs GppNHp-loaded KRAS^G12D) | Kd ([3]; MST, GDP-loaded KRAS^G12D) | CRAF-RBD-bound RAS [4] | phosphorylated AKT [5]
1 | NC1(C(=O)NCCCn2cc(-c3ccc(OC(F)(F)F)cc3)c3cc(CN4CCN(Cc5c(Cl)cccc5Cl)CC4)ccc32)CCNCC1 [Compound 31MEW44, 4-amino-N-(3-(5-((4-(2,6-dichlorobenzyl)piperazin-1-yl)methyl)-3-(4-(trifluoromethoxy)phenyl)-1H-indol-1-yl)propyl)piperidine-4-carboxamide] | Increased fluorescence | Increased fluorescence | effectively decreased pERK abundance in a dose-dependent manner | five-fold | 45 µM | dose-dependent decrease in CRAF-RBD-bound RAS | dose-dependent decrease in phosphorylated AKT
2 | NC1(C(=O)NCCCn2cc(-c3cccc(F)c3)c3c(CN4CCN(CCOc5ccc(Cl)cc5)CC4)cccc32)CCNCC1 [Compound 34MEW43, 4-amino-N-(3-(4-((4-(2-(4-chlorophenoxy)ethyl)piperazin-1-yl)methyl)-3-(3-fluorophenyl)-1H-indol-1-yl)propyl)piperidine-4-carboxamide] | Increased fluorescence |  | effectively decreased pERK abundance in a dose-dependent manner |  |  | dose-dependent decrease in CRAF-RBD-bound RAS | dose-dependent decrease in phosphorylated AKT
